Measured values: US20240324595A1, “HERBICIDAL COMPOSITIONS” (SYNGENTA CROP PROTECTION AG, priority 2021, published 2024)

Legend:
Type in all cases: in vivo
[1] = system: Echinochloa crus-gali (ECHCG); test: Post-emergence efficacy, Echinochloa crus-gali
Source text: (§1) When active ingredients are combined, the activity to be expected (E) for any given active ingredient combination obeys the so-called Colby Formula and can be calculated as follows (Colby, S. R., Calculating synergistic and antagonistic responses of herbicide combination, Weeds, Vol. 15, pages 20-22; 1967): • ppm=milligrams of active ingredient (a.i.) per litre • X=% action by first active ingredient using p ppm of the active ingredient • Y=% action by second active ingredient using q ppm of the active ingredient.
(§2) According to Colby, the expected action of active ingredients A+B using p+q ppm of active ingredient is represented by the following formula: […]
(§3) If the action actually observed (O) is greater than the expected action E then the action of the combination is super-additive, i.e. there is a synergistic effect. In mathematical terms, synergism corresponds to a positive value for the difference of (O−E). In the case of purely complementary addition of activities (expected activity), said difference (O−E) is zero. A negative value of said difference (O−E) signals a loss of activity compared to the expected activity.
(§4) The efficacy of various compositions of the present invention were tested against plants including the following species: Amaranthus retroflexus (AMARE) Cenchrus echinatus (CCHEC), Echinochloa crus-gali (ECHCG), Eleusine indica (ELEIN), Setaria faberi (SETFA) Sorghum halapense (SORHA) and Digitaria insularis (TRCIN). The compositions are applied post-emergence, and the tests evaluated at certain days-after-application (DAA) as indicated. The tests were evaluated (100=total damage to plant; 0=no damage to plant), and the results are shown below in tables B1 to B13.

[2] = system: Setaria faberi (SETFA); test: Post-emergence efficacy, Setaria faberi; details: 15 DAA
Source text: as §1, §2, §3, §4

[3] = system: Amaranthus retroflexus (AMARE); test: Post-emergence efficacy, Amaranthus retroflexus; details: 13 DAA
Source text: as §1, §2
If the action actually observed (O) is greater than the expected action E then the action of the combination is super-additive, i.e. there is a synergistic effect. […]
as §4

[4] = system: Sorghum halapense (SORHA); test: Post-emergence efficacy, Sorghum halapense; details: 15 DAA
Source text: as §1, §2, §3, §4

[5] = system: Eleusine indica (ELEIN); test: Post-emergence efficacy, Eleusine indica; details: 15 DAA
Source text: as §1, §2, §3, §4

[6] = system: Digitaria insularis (TRCIN); test: Post-emergence efficacy, Digitaria insularis
Source text: as §1, §2, §3, §4

[7] = system: Cenchrus echinatus (CCHEC); test: Post-emergence efficacy, Cenchrus echinatus; details: 14 DAA
Source text: as §1, §2, §3, §4

C#CCN1C(=O)C(F)(F)Oc2cc(F)c(-n3c(=O)n(C)c(=S)n(C)c3=O)cc21 [Compound B3k, trifludimoxazin, reference compound]
Observed (100=total damage to plant; 0=no damage) ([1]; Table B11, POST, 20 DAA, rate 4 g/ha): 38 | Observed (100=total damage to plant; 0=no damage) ([1]; Table B11, POST, 20 DAA, rate 30 g/ha): 31

O=C(O)CC[n+]1ccc(-c2cccnn2)cn1.[Cl-] [Compound B4c.27]
Observed (100=total damage to plant; 0=no damage) ([2]; rate 37.5 g/ha): 37

CC#Cc1ccc(C2=C(OC(=O)OC)C3CCC(C3)C2=O)c(OC)c1 (stereo not drawn) [Ic]
Observed (100=total damage to plant; 0=no damage) ([3]; rate 7.5 g/ha): 4 | Observed (100=total damage to plant; 0=no damage) ([1]; Table B7, POST, 20 DAA, rate 3.125 g/ha): 14 | Observed (100=total damage to plant; 0=no damage) ([1]; Table B7, POST, 20 DAA, rate 25 g/ha): 87 | Observed (100=total damage to plant; 0=no damage) ([1]; Table B10, POST, 15 DAA, rate 3.125 g/ha): 45 | Observed (100=total damage to plant; 0=no damage) ([1]; Table B10, POST, 15 DAA, rate 6.25 g/ha): 50 | Observed (100=total damage to plant; 0=no damage) ([1]; Table B10, POST, 15 DAA, rate 12.5 g/ha): 60 | Observed (100=total damage to plant; 0=no damage) ([1]; Table B11, POST, 20 DAA, rate 3.125 g/ha): 14 | Observed (100=total damage to plant; 0=no damage) ([1]; Table B12, POST, 13 DAA, rate 0.94 g/ha (Ic)): 3 | Observed (100=total damage to plant; 0=no damage) ([1]; Table B12, POST, 13 DAA, rate 1.88 g/ha): 24 | Observed (100=total damage to plant; 0=no damage) ([1]; Table B12, POST, 13 DAA, rate 7.5 g/ha): 54 | Observed (100=total damage to plant; 0=no damage) ([1]; Table B13, POST, 15 DAA, rate 3.125 g/ha): 45 | Observed (100=total damage to plant; 0=no damage) ([1]; Table B13, POST, 15 DAA, rate 6.25 g/ha): 50 | Observed (100=total damage to plant; 0=no damage) ([1]; Table B13, POST, 15 DAA, rate 12.5 g/ha): 60 | Observed (100=total damage to plant; 0=no damage) ([4]; rate 3.125 g/ha): 28 | Observed (100=total damage to plant; 0=no damage) ([4]; rate 6.25 g/ha): 45 | Observed (100=total damage to plant; 0=no damage) ([4]; rate 12.5 g/ha): 75 | Observed (100=total damage to plant; 0=no damage) ([5]; rate 12.5 g/ha): 72 | Observed (100=total damage to plant; 0=no damage) ([5]; rate 25 g/ha (Ic)): 79 | Observed (100=total damage to plant; 0=no damage) ([6]; POST, 14 DAA, rate 100 g/ha): 5 | Observed (100=total damage to plant; 0=no damage) ([6]; POST, 16 DAA, rate 3.125 g/ha): 15 | Observed (100=total damage to plant; 0=no damage) ([6]; Table B8, POST, 14 DAA, rate 0.47 g/ha): 0 | Observed (100=total damage to plant; 0=no damage) ([6]; Table B8, POST, 14 DAA, rate 0.94 g/ha): 0 | Observed (100=total damage to plant; 0=no damage) ([6]; Table B8, POST, 14 DAA, rate 1.88 g/ha): 11 | Observed (100=total damage to plant; 0=no damage) ([7]; rate 3 g/ha): 50 | Observed (100=total damage to plant; 0=no damage) ([7]; rate 6 g/ha): 72 | Observed (100=total damage to plant; 0=no damage) ([7]; rate 12.5 g/ha): 79 | Observed (100=total damage to plant; 0=no damage) ([7]; rate 25 g/ha): 79 | Observed (100=total damage to plant; 0=no damage) ([2]; rate 3 g/ha): 10 | Observed (100=total damage to plant; 0=no damage) ([2]; rate 6 g/ha): 29

CP(=O)(O)CC[C@H](N)C(=O)O [Compound B1c, L-glufosinate/glufosinate-P, reference compound]
Observed (100=total damage to plant; 0=no damage) ([6]; POST, 14 DAA, rate 600 g/ha): 60

C#CCN1C(=O)COc2cc(F)c(N3C(=O)C4=C(CCCC4)C3=O)cc21 [Compound B3d, flumioxazin, reference compound]
Observed (100=total damage to plant; 0=no damage) ([1]; Table B7, POST, 20 DAA, rate 4 g/ha): 8 | Observed (100=total damage to plant; 0=no damage) ([1]; Table B7, POST, 20 DAA, rate 15 g/ha): 49

CCOC(=O)COc1ncccc1Oc1cc(-n2c(=O)cc(C(F)(F)F)n(C)c2=O)c(F)cc1Cl [Compound B3c, epyrifenacil, reference compound]
Observed (100=total damage to plant; 0=no damage) ([5]; rate 25 g/ha (B3c)): 16 | Observed (100=total damage to plant; 0=no damage) ([6]; POST, 16 DAA, rate 1 g/ha): 33

CCOC(=O)C(Cl)Cc1cc(-n2nc(C)n(C(F)F)c2=O)c(F)cc1Cl (stereo not drawn) [Compound B3b, carfentrazone-ethyl, reference compound]
Observed (100=total damage to plant; 0=no damage) ([3]; rate 3.75 g/ha): 75

CS(=O)(=O)NC(=O)c1cc(Oc2ccc(C(F)(F)F)cc2Cl)ccc1[N+](=O)[O-] [Compound B3e, fomesafen, reference compound]
Observed (100=total damage to plant; 0=no damage) ([6]; Table B8, POST, 14 DAA, rate 7.5 g/ha): 15 | Observed (100=total damage to plant; 0=no damage) ([6]; Table B8, POST, 14 DAA, rate 15 g/ha): 20 | Observed (100=total damage to plant; 0=no damage) ([6]; Table B8, POST, 14 DAA, rate 30 g/ha): 35

CCOC(=O)C1(C)CC(c2cc(-n3c(=O)cc(C(F)(F)F)n(C)c3=O)c(F)cc2Cl)=NO1 (stereo not drawn) [Compound B3l, 3-(2-chloro-4-fluoro-5-(3-methyl-2,6-dioxo-4-trifluoromethyl-3,6-dihydropyrimidin-1(2H)-yl)phenyl)-5-methyl-4,5-dihydroisoxazole-5-carboxylic acid ethyl ester, reference compound]
Observed (100=total damage to plant; 0=no damage) ([1]; Table B12, POST, 13 DAA, rate 0.94 g/ha (B3l)): 33 | Observed (100=total damage to plant; 0=no damage) ([1]; Table B12, POST, 13 DAA, rate 3.75 g/ha): 73

O=C(O)CNCP(=O)(O)O [Compound B2c, glyphosate, reference compound]
Observed (100=total damage to plant; 0=no damage) ([7]; rate 125 g/ha): 1

COC(=O)CCNC(=O)C(C)Sc1cc(-n2c(=O)cc(C(F)(F)F)n(C)c2=O)c(F)cc1Cl (stereo not drawn) [Compound B3j, tiafenacil, reference compound]
Observed (100=total damage to plant; 0=no damage) ([1]; Table B10, POST, 15 DAA, rate 8 g/ha): 40 | Observed (100=total damage to plant; 0=no damage) ([1]; Table B10, POST, 15 DAA, rate 16 g/ha): 55

Cc1nn(-c2cc(NS(C)(=O)=O)c(Cl)cc2Cl)c(=O)n1C(F)F [Compound B3i, sulfentrazone, reference compound]
Observed (100=total damage to plant; 0=no damage) ([4]; rate 60 g/ha): 13

c1cc[n+]2c(c1)-c1cccc[n+]1CC2 [Compound B4b1, diquat dibromide, reference compound]
Observed (100=total damage to plant; 0=no damage) ([1]; Table B13, POST, 15 DAA, rate 60 g/ha): 43
